# Results from patent US20240207427A1, “SELECTIVE DRUG RELEASE FROM INTERNALIZED CONJUGATES OF BIOLOGICALLY ACTIVE COMPOUNDS” (priority 2021, published 2024).
# Like-named read-outs stand apart in the source and are kept apart here.
# Legend:
# Assay type in all cases: cell-based
# [1] = test system: anaplastic large cell lymphoma cells (Karpas299); test: In vitro potency (CellTiter-Glo, 96 h), Karpas299; conditions: Homo sapiens, KARPAS-299, 96 h
# Method in brief: (§1)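 Four-day continuous exposure at 37 °C to serially diluted ADC or free camptothecin payload, in RPMI 1640 with 20% FBS after 24 h pre-plating. Luminescent signal gave IC50 (ng/mL; nmol/L).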
# [2] = test system: non-small-cell lung cancer cells (Calu1); test: In vitro potency (CellTiter-Glo, 96 h), Calu1; conditions: Homo sapiens, Calu-1, 96 h
# Method in brief: (§2)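 Cells in log-phase growth are plated in RPMI 1640/20% FBS for 24 h. Serially diluted conjugates are then added, and plates are kept at 37 °C for 4 days before ATP-based luminescence gives growth inhibition.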
# [3] = test system: Hodgkin's lymphoma cells (L540cy); test: In vitro potency (CellTiter-Glo, 96 h), L540cy
# Method in brief: as §1
# Ls174T cells = test: In vitro potency (CellTiter-Glo, 96 h), Ls174T; conditions: Homo sapiens
# Method in brief: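 Antibody-drug conjugates, prepared as dilution series in culture medium, were added to cells seeded a day earlier in RPMI 1640 supplemented with 20% FBS. After four days at 37 °C, luminescence measured growth inhibition.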
# [4] = test system: anaplastic large cell lymphoma cells (DELBVR); test: In vitro potency (CellTiter-Glo, 96 h), DELBVR
# Method in brief: as §1
# [5] = test system: renal carcinoma cells (786-O); test: In vitro potency (CellTiter-Glo, 96 h), 786-O; conditions: Homo sapiens, 786-0, 96 h
# Method in brief: as §1
# [6] = test system: breast cancer cells (MDA-MB-231); test: In vitro potency (CellTiter-Glo, 96 h), MDA-MB-231; conditions: Homo sapiens, MDA-MB-231, 96 h
# Method in brief: as §1
# [7] = test system: anaplastic large cell lymphoma cells (DEL); test: In vitro potency (CellTiter-Glo, 96 h), DEL
# Method in brief: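 Growth inhibition after 96 h at 37 °C with test article, measured by luminescence; cells in RPMI 1640, 20% FBS.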
# [8] = test system: acute myeloid leukemia cells (MOLM-13); test: In vitro potency (CellTiter-Glo, 96 h), MOLM-13; conditions: Homo sapiens, MOLM-13, 96 h
# Method in brief: as §1
# [9] = test system: pancreatic cancer cells (BxPC3); test: In vitro potency (CellTiter-Glo, 96 h), BxPC3; conditions: Homo sapiens, BXPC-3, 96 h
# Method in brief: as §1
# [10] = test system: B-lymphocyte cancer cells (SU-DHL4); test: In vitro potency (CellTiter-Glo, 96 h), SU-DHL-4; conditions: Homo sapiens, SU-DHL-4, 96 h
# Method in brief: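 Log-phase cells were seeded for 24 h in RPMI 1640 with 20% FBS, then exposed to serially diluted antibody-drug conjugates or free camptothecin drug for 4 days at 37 °C. Growth inhibition was read by luminescence, and IC50 values were reported in ng/mL and nmol/L.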
# melanoma cells (A2058) = test: In vitro potency (CellTiter-Glo, 96 h), A2058; conditions: Homo sapiens, A2058, 96 h
# Method in brief: as §2
# [11] = CPT free drugs, Table 24, CellTiter-Glo after 96 h exposure, read-out: IC50 (nmol/L) Karpas299
# [12] = CPT free drugs, Table 24, CellTiter-Glo after 96 h exposure, read-out: IC50 (nmol/L) Calu1
# [13] = CPT free drugs, Table 24, CellTiter-Glo after 96 h exposure, read-out: IC50 (nmol/L) L540cy
# [14] = LS174T, CPT free drugs, Table 24, CellTiter-Glo after 96 h exposure, read-out: IC50 (nmol/L) Ls174T
# [15] = CPT free drugs, Table 24, CellTiter-Glo after 96 h exposure, read-out: IC50 (nmol/L) DELBVR
# [16] = CPT free drugs, Table 24, CellTiter-Glo after 96 h exposure, read-out: IC50 (nmol/L) 786-O
# [17] = CPT free drugs, Table 24, CellTiter-Glo after 96 h exposure, read-out: IC50 (nmol/L) MDAMB231
# [18] = CPT free drugs, Table 24, CellTiter-Glo after 96 h exposure, read-out: IC50 (nmol/L) DEL
# [19] = CPT free drugs, Table 24, CellTiter-Glo after 96 h exposure, read-out: IC50 (nmol/L) MOLM-13
# [20] = CPT free drugs, Table 24, CellTiter-Glo after 96 h exposure, read-out: IC50 (nmol/L) BxPC3
# [21] = CPT free drugs, Table 24, CellTiter-Glo after 96 h exposure, read-out: IC50 (nmol/L) SU-DHL-4
# [22] = CPT free drugs, Table 24, CellTiter-Glo after 96 h exposure, read-out: IC50 (nmol/L) A2058
Structure (SMILES),"IC50 [1, 11]","IC50 [2, 12]","IC50 [3, 13]",IC50 (Ls174T cells; [14]),"IC50 [4, 15]","IC50 [5, 16]","IC50 [6, 17]","IC50 [7, 18]","IC50 [8, 19]","IC50 [9, 20]","IC50 [10, 21]",IC50 (melanoma cells (A2058); [22]),further results
CC[C@@]1(O)C(=O)OCc2c1cc1n(c2=O)Cc2c-1nc1cc(F)c(C)c(C3=CCOC3)c1c2CN [Compound 6d],–,–,–,–,–,–,–,–,–,–,–,–,"IC50 ([1]; Table 28, CPT free drugs, anaplastic large cell lymphoma cells Karpas299, 96 h, CellTiter-Glo, read-out: Karpas299 IC50): 12 nmol/L; IC50 ([2]; Table 28, CPT free drugs, non-small-cell lung cancer cells Calu1, 96 h, CellTiter-Glo, read-out: Calu1 IC50): 43 nmol/L; IC50 ([3]; Table 28, CPT free drugs, Hodgkin's lymphoma cells L540cy, CellTiter-Glo, read-out: L540cy IC50): 11 nmol/L; IC50 (Ls174T cells; Table 28, CPT free drugs, Ls174T cells, 96 h, CellTiter-Glo, read-out: Ls174T IC50): 31 nmol/L; IC50 ([4]; Table 28, CPT free drugs, anaplastic large cell lymphoma cells DELBVR, CellTiter-Glo, read-out: DELBVR IC50): 12 nmol/L; IC50 ([5]; Table 28, CPT free drugs, renal carcinoma cells 786-O, 96 h, CellTiter-Glo, read-out: 786-O IC50): 23 nmol/L; IC50 ([6]; Table 28, CPT free drugs, breast cancer cells MDA-MB-231, 96 h, CellTiter-Glo, read-out: MDAMB231 IC50): 21 nmol/L; IC50 ([7]; Table 28, CPT free drugs, anaplastic large cell lymphoma cells DEL, CellTiter-Glo, read-out: DEL IC50): 3 nmol/L; IC50 ([8]; Table 28, CPT free drugs, acute myeloid leukemia cells MOLM-13, 96 h, CellTiter-Glo, read-out: MOLM-13 IC50): 6 nmol/L; IC50 ([9]; Table 28, CPT free drugs, pancreatic cancer cells BxPC3, 96 h, CellTiter-Glo, read-out: BxPC3 IC50): 15 nmol/L; IC50 ([10]; Table 28, CPT free drugs, B-lymphocyte cancer cells SU-DHL4, 96 h, CellTiter-Glo, read-out: SU-DHL-4 IC50): 4 nmol/L; IC50 (melanoma cells (A2058); Table 28, CPT free drugs, melanoma cells A2058, 96 h, CellTiter-Glo, read-out: A2058 IC50): 13 nmol/L"
CC[C@@]1(O)C(=O)OCc2c1cc1n(c2=O)Cc2c-1nc1cc3c(cc1c2CN(C)C)OCO3 [Compound 7ae],–,–,–,–,–,–,–,–,–,–,–,–,"IC50 ([1]; read-out: Karpas299 IC50, camptothecin free drug, 96 h): 42 nmol/L; IC50 ([2]; read-out: Calu1 IC50): 555 nmol/L; IC50 ([3]; read-out: L540cy IC50, camptothecin free drug, 96 h): 20 nmol/L; IC50 (Ls174T cells; LS174T, 96 h, read-out: Ls174T IC50, camptothecin free drug, 96 h): 46 nmol/L; IC50 ([4]; read-out: DELBVR IC50, camptothecin free drug, 96 h): 14 nmol/L; IC50 ([5]; read-out: 786-O IC50, camptothecin free drug, 96 h): 39 nmol/L; IC50 ([6]; read-out: MDAMB231 IC50, camptothecin free drug, 96 h): 164 nmol/L; IC50 ([7]; read-out: DEL IC50, camptothecin free drug, 96 h): 8 nmol/L; IC50 ([8]; read-out: MOLM-13 IC50, camptothecin free drug, 96 h): 165 nmol/L; IC50 ([9]; read-out: BxPC3 IC50, camptothecin free drug, 96 h): 48 nmol/L; IC50 ([10]; read-out: SU-DHL-4 IC50, camptothecin free drug, 96 h): 23 nmol/L; IC50 (melanoma cells (A2058); read-out: A2058 IC50): 11 nmol/L"
CC[C@@]1(O)C(=O)OCc2c1cc1n(c2=O)Cc2c-1nc1cc(F)ccc1c2CN [Compound 2f],6 nmol/L,40 nmol/L,3 nmol/L,3.9 nmol/L,1.2 nmol/L,6 nmol/L,4 nmol/L,1 nmol/L,11 nmol/L,9 nmol/L,4 nmol/L,2 nmol/L,–
CC[C@@]1(O)C(=O)OCc2c1cc1n(c2=O)Cc2c-1nc1ccc(Br)cc1c2CN [Compound 2e],10.7 nmol/L,55 nmol/L,4.3 nmol/L,4.5 nmol/L,4 nmol/L,4.2 nmol/L,7.1 nmol/L,1 nmol/L,56 nmol/L,30.7 nmol/L,5.7 nmol/L,5 nmol/L,–
CC[C@@]1(O)C(=O)OCc2c1cc1n(c2=O)Cc2c-1nc1cc(F)c(O)cc1c2CN [Compound 3b],> 1000 nmol/L,> 1000 nmol/L,> 1000 nmol/L,> 1000 nmol/L,> 1000 nmol/L,> 1000 nmol/L,> 1000 nmol/L,> 1000 nmol/L,> 1000 nmol/L,> 1000 nmol/L,> 1000 nmol/L,> 1000 nmol/L,–
CC[C@@]1(O)C(=O)OCc2c1cc1n(c2=O)Cc2c-1nc1cc(F)c(F)cc1c2CN [Compound 2l],8 nmol/L,42 nmol/L,4 nmol/L,8.1 nmol/L,2.1 nmol/L,15 nmol/L,8 nmol/L,3.3 nmol/L,16 nmol/L,35 nmol/L,4 nmol/L,4 nmol/L,–
CC[C@@]1(O)C(=O)OCc2c1cc1n(c2=O)Cc2c-1nc1cc(F)c(OC)c(F)c1c2CN [Compound 2x],11 nmol/L,27 nmol/L,6 nmol/L,16 nmol/L,5 nmol/L,18 nmol/L,91 nmol/L,4 nmol/L,19 nmol/L,34 nmol/L,7 nmol/L,5 nmol/L,–
CC[C@@]1(O)C(=O)OCc2c1cc1n(c2=O)Cc2c-1nc1cc3c(cc1c2CN)OCC3 [Compound 2m],–,–,–,–,–,–,–,–,–,–,–,–,"IC50 ([1]; read-out: IC50 (nmol/L) Karpas299, CPT free drugs, Table 24, CellTiter-Glo after 96 h exposure): 57.2 nmol/L; IC50 ([2]; read-out: IC50 (nmol/L) Calu1): 249 nmol/L; IC50 ([3]; read-out: IC50 (nmol/L) L540cy, CPT free drugs, Table 24, CellTiter-Glo after 96 h exposure): 17.8 nmol/L; IC50 (Ls174T cells; LS174T, 96 h, read-out: IC50 (nmol/L) Ls174T, CPT free drugs, Table 24, CellTiter-Glo after 96 h exposure): 17 nmol/L; IC50 ([4]; read-out: IC50 (nmol/L) DELBVR, CPT free drugs, Table 24, CellTiter-Glo after 96 h exposure): 14 nmol/L; IC50 ([5]; read-out: IC50 (nmol/L) 786-O, CPT free drugs, Table 24, CellTiter-Glo after 96 h exposure): 55 nmol/L; IC50 ([6]; read-out: IC50 (nmol/L) MDAMB231, CPT free drugs, Table 24, CellTiter-Glo after 96 h exposure): 35 nmol/L; IC50 ([7]; read-out: IC50 (nmol/L) DEL, CPT free drugs, Table 24, CellTiter-Glo after 96 h exposure): 11 nmol/L; IC50 ([8]; read-out: IC50 (nmol/L) MOLM-13, CPT free drugs, Table 24, CellTiter-Glo after 96 h exposure): 60.7 nmol/L; IC50 ([9]; read-out: IC50 (nmol/L) BxPC3, CPT free drugs, Table 24, CellTiter-Glo after 96 h exposure): 128 nmol/L; IC50 ([10]; read-out: IC50 (nmol/L) SU-DHL-4, CPT free drugs, Table 24, CellTiter-Glo after 96 h exposure): 22.4 nmol/L; IC50 (melanoma cells (A2058); read-out: IC50 (nmol/L) A2058): 16.2 nmol/L"
CC[C@@]1(O)C(=O)OCc2c1cc1n(c2=O)Cc2c-1nc1cc(F)c(OC)cc1c2CN [Compound 2i],5 nmol/L,31 nmol/L,2 nmol/L,3.4 nmol/L,1 nmol/L,5 nmol/L,4 nmol/L,1 nmol/L,13 nmol/L,10 nmol/L,4 nmol/L,2 nmol/L,–
